We go through 41 molecules from patent publication US9751854B2 (Millennium Pharmaceuticals, Inc., priority 2014, dated 2017).

The structures appear in SMILES notation.

human VPS34, sequence (Q8NEB9 whole entry): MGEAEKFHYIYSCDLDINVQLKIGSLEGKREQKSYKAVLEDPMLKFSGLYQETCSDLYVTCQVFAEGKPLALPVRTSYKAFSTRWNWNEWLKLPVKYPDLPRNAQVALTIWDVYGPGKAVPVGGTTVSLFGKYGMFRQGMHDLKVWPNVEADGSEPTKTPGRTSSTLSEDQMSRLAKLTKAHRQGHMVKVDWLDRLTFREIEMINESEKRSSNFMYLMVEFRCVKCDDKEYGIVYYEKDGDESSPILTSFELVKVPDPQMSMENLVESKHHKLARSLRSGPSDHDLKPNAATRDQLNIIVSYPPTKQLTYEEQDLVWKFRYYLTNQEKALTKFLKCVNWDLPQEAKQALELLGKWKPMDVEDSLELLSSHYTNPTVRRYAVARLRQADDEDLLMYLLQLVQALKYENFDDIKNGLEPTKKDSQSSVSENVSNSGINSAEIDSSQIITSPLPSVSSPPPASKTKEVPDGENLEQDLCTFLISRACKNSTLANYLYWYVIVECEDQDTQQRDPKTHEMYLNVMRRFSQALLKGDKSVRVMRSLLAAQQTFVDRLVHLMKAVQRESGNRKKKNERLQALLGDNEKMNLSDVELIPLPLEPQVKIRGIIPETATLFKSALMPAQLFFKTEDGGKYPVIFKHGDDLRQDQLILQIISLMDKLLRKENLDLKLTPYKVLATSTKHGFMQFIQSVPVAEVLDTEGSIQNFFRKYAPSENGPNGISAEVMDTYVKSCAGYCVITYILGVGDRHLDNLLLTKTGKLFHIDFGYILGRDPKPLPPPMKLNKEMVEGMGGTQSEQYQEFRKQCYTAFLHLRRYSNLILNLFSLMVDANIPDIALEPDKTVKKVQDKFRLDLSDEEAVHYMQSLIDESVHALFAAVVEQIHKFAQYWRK

One test addresses human VPS34 (Homo sapiens (Human), UniProt Q8NEB9). The test can be described thus: Human VPS34 enzyme assay (Adapta TR-FRET ADP detection).
Details: not given
Format: biochemical. On the set-up: Percent Inhibition: dose or concentration left out as unconfirmed. Background: In TR-FRET formats the signal depends on donor and acceptor labels being close together.
Take `Cc1ncc(-c2ccnc(NC(=O)C3CC3(F)F)c2)cc1NS(=O)(=O)N(C)C` (single isomer, unassigned) [Compound I-499]: the “Percent Inhibition” value was above 99%.
Same read-out and setting: the value for `CC(=O)Nc1cc(-c2cnc(Cl)c(NS(=O)(=O)N(C)C)c2)ccn1` [Compound I-372, N-{6-chloro-5-[(dimethylsulfamoyl)amino]-3,4′-bipyridin-2′-yl}acetamide] was above 99%.
The IC50 is the midpoint of a concentration-inhibition curve. As to `CC(=O)Nc1cc(-c2cnc(N)c(S(=O)(=O)CC3CC3)c2)ccn1` [Compound I-208], the IC50 is 0.01 to 0.05 µM and the “Percent Inhibition” value is given as above 99%.

The same test, now with this note: IC50 range class.
Molecule `CC(=O)Nc1cc(-c2cnc(C)c(S(N)(=O)=O)c2)ccn1` [Compound I-395, N-(6-methyl-5-sulfamoyl-3,4′-bipyridin-2′-yl)acetamide] showed an IC50 of 0.01 to 0.05 µM.
The same measure, in the same setting: the value for `Cc1nccc(Nc2cc(-c3cnc(C)c(OC4CCCC4)c3)ccn2)n1` [Compound I-471, 5-(cyclopentyloxy)-6-methyl-N-(2-methylpyrimidin-4-yl)-3,4′-bipyridin-2′-amine] was 0.01 to 0.05 µM; that for `CC(=O)Nc1cc(-c2cnc(C)c(NS(=O)(=O)c3ccccc3F)c2)ccn1` [Compound I-144, N-[5-{[(2-fluorophenyl)sulfonyl]amino}-6-methyl-3,4′-bipyridin-2′-yl)acetamide] was below 0.01 µM.
Consider `COC(=O)Nc1cc(-c2cnc(N)c(S(=O)(=O)N(C)C)c2)ccn1` [Compound I-171, Methyl [6-amino-5-(dimethylsulfamoyl)-3,4′-bipyridin-2′-yl]carbamate], for which the IC50 is below 0.01 µM.
The same measure, in the same setting: to `Cc1c(-c2ccnc(Nc3ccnc(C4CC4)n3)c2)cnc(Cl)c1C(=O)N1CCC1` [Compound I-361, azetidin-1-yl(6-chloro-2′-((2-cyclopropylpyrimidin-4-yl)amino)-4-methyl-[3,4′-bipyridin]-5-yl)methanone] belongs 0.01 to 0.05 µM.
The same measure, in the same setting: the value for `CC(=O)Nc1cc(-c2cnc(N)c(C(=O)N(C)C)c2)ccn1` [Compound I-149, 2′-acetamido-6-amino-N,N-dimethyl-3,4′-bipyridine-5-carboxamide] was 0.01 to 0.05 µM.
Same read-out and setting: to `CC(=O)Nc1cc(-c2cnc(N)c(S(N)(=O)=O)c2)ccn1` [Compound I-61, N-(6-amino-5-sulfamoyl-3,4′-bipyridin-2′-yl)acetamide] belongs 0.01 to 0.05 µM.
`COC(=O)Nc1cc(-c2cncc(S(=O)(=O)N3CCOCC3)c2)ccn1` [Compound I-332, methyl [5-(morpholin-4-ylsulfonyl)-3,4′-bipyridin-2′-yl]carbamate] gave an IC50 of 0.01 to 0.05 µM.
The molecule `CC(=O)Nc1cc(-c2cnc(N)c(S(=O)(=O)Cc3ccccc3C(F)(F)F)c2)ccn1` [Compound I-50, N-(6-amino-5-{[2-(trifluoromethyl)benzyl]sulfonyl}-3,4′-bipyridin-2′-yl)acetamide] displayed an IC50 of 0.01 to 0.05 µM.
On the same count and under the same terms, to `Cc1ncc(-c2ccnc(NC(=O)C3CC3(F)F)c2)cc1NS(=O)(=O)N(C)C` (single isomer, unassigned) [Compound I-499] belongs 0.01 to 0.05 µM; to `Cc1ncc(-c2ccnc(NC(=O)C3CC3(F)F)c2)cc1NS(=O)(=O)c1ccc(F)cc1F` (single isomer, unassigned) [Compound I-267a, N-(5-{[(2,4-difluorophenyl)sulfonyl]amino}-6-methyl-3,4′-bipyridin-2′-yl)-2,2-difluorocyclopropanecarboxamide], 0.01 to 0.05 µM; to `CC(=O)Nc1cc(-c2ccc(S(=O)(=O)Nc3cc(-c4ccnc(NC(C)=O)c4)cnc3C)c(F)c2)ccn1` [Compound I-86, N-(4-{4-[(2′-acetamido-6-methyl-3,4′-bipyridin-5-yl)sulfamoyl]-3-fluorophenyl}pyridin-2-yl)acetamide], below 0.01 µM.
On the same count and under the same terms, the value for `CC(=O)Nc1cc(-c2cnc(Cl)c(NS(=O)(=O)c3cc(F)ccc3F)c2C)ccn1` [Compound I-227, N-(6-chloro-5-{[(2,5-difluorophenyl)sulfonyl]amino)-4-methyl-3,4′-bipyridin-2′-yl)acetamide] was 0.01 to 0.05 µM; that for `CC(=O)Nc1cc(-c2cncc(S(=O)(=O)N3CCN(C)CC3)c2)ccn1` [Compound I-481] was 0.01 to 0.05 µM.
On the same count and under the same terms, to `CC(=O)Nc1cc(-c2cnc3cn(S(=O)(=O)C4CC4)nc3c2)ccn1` [Compound I-105, N-{4-[2-(cyclopropylsulfonyl)-2H-pyrazolo[4,3-b]pyridin-6-yl]pyridin-2-yl}acetamide] belongs above 0.1 µM.
Regarding `COc1ncc(-c2ccnc(NC(C)=O)c2)cc1NS(=O)(=O)N(C)C` [Compound I-220, N-{5-[(dimethylsulfamoyl)amino]-6-methoxy-3,4′-bipyridin-2′-yl}acetamide], the IC50 is 0.01 to 0.05 µM.
For the molecule `COc1ncc(-c2ccnc(Nc3ccnc(C)n3)c2)cc1C(=O)N(C)c1ccc(F)cc1F` [Compound I-252, N-(2,4-difluorophenyl)-6-methoxy-N-methyl-2′-[(2-methylpyrimidin-4-yl)amino]-3,4′-bipyridine-5-carboxamide], the IC50 fell in the range of 0.01 to 0.05 µM.
The same measure, in the same setting: to `CC(=O)Nc1cc(-c2cncc(NS(=O)(=O)c3ccc(F)cc3F)c2Cl)ccn1` [Compound I-394, N-(4-chloro-5-{[(2,4-difluorophenyl)sulfonyl]amino}-3,4′-bipyridin-2′-yl)acetamide] belongs 0.01 to 0.05 µM.
`CC(=O)Nc1cc(-c2cnc(C)c(NS(=O)(=O)N3CCCC3)c2)ccn1` [Compound I-274, N-{6-methyl-5-[(pyrrolidin-1-ylsulfonyl)amino]-3,4′-bipyridin-2′-yl}acetamide] came in with an IC50 of 0.01 to 0.05 µM.
Still for that read-out and setting: the value for `CC(=O)Nc1cc(-c2cnc(N)c(C(=O)NC3CCOCC3)c2)ccn1` [Compound I-210, 2′-acetamido-6-amino-N-(tetrahydro-2H-pyran-4-yl)-3,4′-bipyridine-5-carboxamide] was 0.05 to 0.1 µM.
As for `CC(=O)Nc1cc(-c2cncc(C(C)=O)c2)ccn1` [Compound I-194, N-(5-acetyl-3,4′-bipyridin-2′-yl)acetamide], the IC50 was above 0.1 µM.
Still for that read-out and setting: to `CCOc1cc(-c2ccnc(Nc3ccnc(C)n3)c2)cnc1C` [Compound I-479, 5-ethoxy-6-methyl-N-(2-methylpyrimidin-4-yl)-3,4′-bipyridin-2′-amine] belongs 0.01 to 0.05 µM; to `Cc1c(-c2ccnc(Nc3ccnc(C4CC4)n3)c2)cnc(Cl)c1NS(=O)(=O)N(C)C` [Compound I-435, N′-{6-chloro-2′-[(cyclopropylpyrimidin-4-yl)amino]-4-methyl-3,4′-bipyridin-5-yl}-N,N-dimethylsulfuric diamide], below 0.01 µM; to `Cc1nccc(Nc2cc(-c3cnc(C)c(C(=O)NCC4CC4)c3)ccn2)n1` [Compound I-285, N-(cyclopropylmethyl)-6-methyl-2′-((2-methylpyrimidin-4-yl)amino)-[3,4′-bipyridine]-5-carboxamide], 0.01 to 0.05 µM.
Same read-out and setting: the value for `CC(=O)Nc1cc(-c2cnc(N)c(C(=O)N3Cc4ccccc4C3)c2)ccn1` [Compound I-125] was below 0.01 µM; that for `CCc1c(-c2ccnc(NC(C)=O)c2)cnc(Cl)c1NS(=O)(=O)c1ccc(F)cc1F` [Compound I-469, N-(6-chloro-5-{[(2,4-difluorophenyl)sulfonyl]amino}-4-ethyl-3,4′-bipyridin-2′-yl)acetamide] was 0.01 to 0.05 µM.
Same read-out and setting: the value for `CC(=O)Nc1cc(-c2cnc(N)c(C(=O)Nc3cc(C)cnn3)c2)ccn1` [Compound I-121, 2′-acetamido-6-amino-N-(5-methylpyridazin-3-yl)-3,4′-bipyridine-5-carboxamide] was 0.05 to 0.1 µM.
The molecule `CC(=O)Nc1cc(-c2cnc(Cl)c(NS(=O)(=O)N(C)C)c2)ccn1` [Compound I-372, N-{6-chloro-5-[(dimethylsulfamoyl)amino]-3,4′-bipyridin-2′-yl}acetamide] displayed a half-inhibitory concentration (IC50) below 0.01 µM.
On the same count and under the same terms, to `CC(=O)Nc1cc(-c2cnc(C)c(N3CCCNS3(=O)=O)c2)ccn1` [Compound I-387, N-[5-(1,1-dioxido-1,2,6-thiadiazinan-2-yl)-6-methyl-3,4′-bipyridin-2′-yl]acetamide] belongs 0.01 to 0.05 µM; to `CC(=O)Nc1cc(-c2cnc(N)c(C(=O)NC3CC3)c2)ccn1` [Compound I-169, 2′-acetamido-6-amino-N-cyclopropyl-3,4′-bipyridine-5-carboxamide], 0.01 to 0.05 µM; to `CC(=O)Nc1cc(-c2cncc(NC(=O)c3ccc(F)cc3F)c2)ccn1` [Compound I-419, N-(2′-acetamido-3,4′-bipyridin-5-yl)-2,4-difluorobenzamide], above 0.1 µM.
The same measure, in the same setting: the value for `CCN(CC)S(=O)(=O)c1cc(-c2ccnc(NC(C)=O)c2)cnc1N` [Compound I-124, N-[6-amino-5-(diethylsulfamoyl)-3,4′-bipyridin-2′-yl]acetamide] was below 0.01 µM; that for `CC(=O)Nc1cc(-c2cnc3[nH]cc(CN(C)C)c3c2)ccn1` [Compound I-85, N-(4-{3-[(dimethylamino)methyl]-1H-pyrrolo[2,3-b]pyridin-5-yl}pyridin-2′-yl)acetamide] was above 0.1 µM.
The same measure, in the same setting: the value for `CNC1CN(c2cc(-c3ccnc(NC(C)=O)c3)cnc2C)S(=O)(=O)C1` (centres unmarked) [Compound I-325, N-{6-methyl-5-[4-(methylamino)-1,1-dioxidoisothiazolidin-2-yl]-3,4′-bipyridin-2′-yl}acetamide] was 0.01 to 0.05 µM; that for `Cc1nccc(Nc2cc(-c3cnc(C)c(OCc4ccccc4)c3)ccn2)n1` [Compound I-363, 5-(benzyloxy)-6-methyl-N-(2-methylpyrimidin-4-yl)-3,4′-bipyridin-2′-amine] was above 0.1 µM.
As to `CCN(CC)S(=O)(=O)c1cc(-c2ccnc(NC(C)=O)c2)cnc1C` [Compound I-370, N-[5-(diethylsulfamoyl)-6-methyl-3,4′-bipyridin-2′-yl]acetamide], the IC50 was in the range of 0.01 to 0.05 µM.
Still for that read-out and setting: the value for `Cc1c(-c2ccnc(Nc3ncc(C#N)cn3)c2)cnc(Cl)c1NS(=O)(=O)c1ccc(F)cc1F` [Compound I-300, N-{6-chloro-2′-[(5-cyanopyrimidin-2-yl)amino]-4-methyl-3,4′-bipyridin-5-yl}-2,4-difluorobenzenesulfonamide] was 0.01 to 0.05 µM.
The same measure, in the same setting: the value for `CC(=O)Nc1cc(-c2cnc(N)c(NCC3CC3)c2)ccn1` [Compound I-35, N-{6-amino-5-[(cyclopropylmethyl)amino]-3,4′-bipyridin-2′-yl}acetamide] was 0.01 to 0.05 µM; that for `CNc1ncc(-c2ccnc(NC(C)=O)c2)cc1C(=O)N(C)C` [Compound I-22, 2′-acetamido-N,N-dimethyl-6-(methylamino)-3,4′-bipyridine-5-carboxamide] was 0.01 to 0.05 µM; that for `CC(=O)Nc1cc(-c2cnc(C)c(NS(=O)(=O)C3CCCCC3)c2)ccn1` [Compound I-72, N-{5-[(cyclohexylsulfonyl)amino]-6-methyl-3,4′-bipyridin-2′-yl]acetamide] was below 0.01 µM.
